Article PMC10916400, “Effect of the aggregated protein dye YAT2150 on Leishmania parasite viability” (Antimicrobial Agents and Chemotherapy, 2024)

Experiments:
[1] = biological target: T1, CYP1A2 (Homo sapiens, UniProt P05177); test: Cytochrome inhibition activity assay; type: biochemical; conditions: probe 3-cyano-7-ethoxycoumarin, human recombinant enzyme, 37°C
T1 construct: host or cells: baculovirus-infected insect cells (microsomes)
T1 sequence (P05177 1-516): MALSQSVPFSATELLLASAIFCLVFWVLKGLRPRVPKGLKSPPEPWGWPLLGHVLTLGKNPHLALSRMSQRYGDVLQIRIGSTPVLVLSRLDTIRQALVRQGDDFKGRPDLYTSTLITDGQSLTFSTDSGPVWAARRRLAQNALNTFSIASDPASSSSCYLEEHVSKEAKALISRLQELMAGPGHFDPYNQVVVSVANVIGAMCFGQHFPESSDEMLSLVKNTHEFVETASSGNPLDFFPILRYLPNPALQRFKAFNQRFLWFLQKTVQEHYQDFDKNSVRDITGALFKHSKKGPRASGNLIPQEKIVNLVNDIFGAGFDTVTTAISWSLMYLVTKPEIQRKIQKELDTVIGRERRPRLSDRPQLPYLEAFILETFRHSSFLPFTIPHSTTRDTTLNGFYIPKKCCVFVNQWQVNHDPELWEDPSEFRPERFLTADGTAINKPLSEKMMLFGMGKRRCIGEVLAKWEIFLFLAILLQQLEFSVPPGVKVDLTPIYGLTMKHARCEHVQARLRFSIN
Experimental: (§1) To screen the inhibition potential of the compounds using recombinant human cytochrome P450 enzymes (CYP1A2, CYP2C9, CYP2C19, and CYP2D6) and probe substrates with fluorescent detection, incubations were conducted in a 200-µL volume in 96-well microtiter plates (Costar #3915; Corning Inc.). Addition of cofactor-buffer mixture (0.2 M KH2PO4 buffer, 1.3 mM NADP, 3.3 mM MgCl2, 3.3 mM glucose-6-phosphate, and 0.4 U/mL glucose-6-phosphate dehydrogenase), previously diluted control Supersomes (insect cell control for Supersomes enzymes, baculovirus-insect cell-expressed; Corning Inc.), standard inhibitors (furafylline, tranylcypromine, sulfaphenazole, and quinidine), and test compounds was carried out by a Zephyr liquid handling station (Caliper Life Sciences, Hopkinton, MA, US). The plate was then pre-incubated at 37°C for 5 min, and the reaction was initiated by the addition of pre-warmed enzyme/substrate mix, which contained buffer (KH2PO4), cDNA-expressed P450 in insect cell microsomes, substrate (3-cyano-7-ethoxycoumarin for CYP1A2 and CYP2C19, 7-methoxy-4-(trifluoromethyl)coumarin for CYP2C9, and 3-[2-(N,N-diethyl-N-methylammonium)ethyl]-7-methoxy-4-methylcoumarin for CYP2D6) to obtain the final assay concentrations in a reaction volume of 200 µL. Reactions were terminated after a specific time for each cytochrome by the addition of stop solution (ACN:0.5 M tris-HCl, 80:20 vol/vol). Fluorescence in each well was measured using a fluorescence plate reader (EnVision 2104 multilabel plate reader; PerkinElmer, Waltham, MA, US), and percentage of inhibition was calculated.

[2] = biological target: T2, CYP2C9 (Homo sapiens, UniProt P11712); test: Cytochrome inhibition activity assay; type: biochemical; conditions: probe 7-methoxy-4-(trifluoromethyl)coumarin, human recombinant enzyme, 37°C
T2 construct: host or cells: baculovirus-infected insect cells (microsomes)
Experimental: as §1

[3] = biological target: T3, CYP2D6 (Homo sapiens, UniProt P10635); test: Cytochrome inhibition activity assay; type: biochemical; conditions: human recombinant enzyme, 37°C
T3 construct: host or cells: baculovirus-infected insect cells (microsomes)
Experimental: as §1

[4] = in vitro; type: in vitro ADME; conditions: 37°C
Experimental: Plates (96-well Polypropylene Deep Well Plate; Corning Inc., Somerville, MA, US) containing 100 µL of 5 µM compounds in human plasma (Seralab, Granollers, Spain), pooled from healthy donors and extracted in citrate tubes, were incubated at 37°C for different times (0, 60, 120, and 360 min). Then, 300 µL ACN was added to precipitate plasma protein, and the plate was centrifuged at 4000 × g for 60 min at 4°C. For sample quantification, the resulting supernatant was taken and analyzed by ultra performance liquid chromatography with tandem mass spectrometry (UPLC-MS/MS; ACQUITY Xevo TQD UPLC QSM; Waters) in an ACQUITY BEH C18 column (1.7 µm, 2.1 × 50 mm; Waters). As mobile phase (0.6 mL/min flow rate) was used the following gradient of 0.1% formic acid in water (A) or in ACN (B): 95% A:5% B from 0 to 0.1 min, gradual increase to 100% B from 0.1 to 1 min, maintenance in 100% B from 1 to 2 min, return to 95% A:5% B from 2 to 2.1 min, and maintenance of this ratio from 2.1 to 2.5 min. Compound concentrations were calculated from the MS peak areas.

[5] = Human hepatocyte stability assay; type: in vitro ADME; conditions: 37°C
Experimental: A vial of human hepatocytes (100 donor pool HCP100.H15/Lot: 2010012; XenoTech, Kansas City, KS, US) was removed from the liquid nitrogen tank and immersed into a water bath. When only a small ice crystal remained, the cell suspension was transferred to a tube with the preheated suspension medium (OptiThaw hepatocyte medium, K8000; XenoTech). After a brief centrifugation at 100 × g for 5 min, hepatocytes were gently resuspended with incubation medium (OptiIncubate hepatocyte medium, K8400; XenoTech) and counted, and viability was determined using trypan blue staining. One-micromolar compounds were incubated at 37°C and 5% CO2 in the presence of 0.5 × 10^6 hepatocytes in a 500-µL incubation volume. Aliquots were taken, and reactions were terminated with ACN at each of the six sampling time points (0, 15, 30, 60, 90, and 120 min). The samples were centrifuged, and the remaining compound was determined by UPLC-MS/MS analysis as above. Intrinsic clearance was calculated from the logarithm of the remaining compound at each of the times evaluated.

T3 sequence (P10635 whole entry): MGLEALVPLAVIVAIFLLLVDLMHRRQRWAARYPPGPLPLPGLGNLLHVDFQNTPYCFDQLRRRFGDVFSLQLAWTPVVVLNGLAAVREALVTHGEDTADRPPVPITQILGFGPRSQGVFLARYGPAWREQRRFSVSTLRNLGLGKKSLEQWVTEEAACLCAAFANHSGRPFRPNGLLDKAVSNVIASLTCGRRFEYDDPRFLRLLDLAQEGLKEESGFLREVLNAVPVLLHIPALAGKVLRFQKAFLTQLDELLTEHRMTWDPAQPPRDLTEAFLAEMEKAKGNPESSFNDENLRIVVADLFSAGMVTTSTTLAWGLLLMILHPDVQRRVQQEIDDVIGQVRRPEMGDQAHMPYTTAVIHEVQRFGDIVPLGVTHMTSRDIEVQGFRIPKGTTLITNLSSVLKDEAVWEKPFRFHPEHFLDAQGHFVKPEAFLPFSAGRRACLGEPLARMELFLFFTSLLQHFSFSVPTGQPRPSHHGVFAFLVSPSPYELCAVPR
T2 sequence (P11712 whole entry): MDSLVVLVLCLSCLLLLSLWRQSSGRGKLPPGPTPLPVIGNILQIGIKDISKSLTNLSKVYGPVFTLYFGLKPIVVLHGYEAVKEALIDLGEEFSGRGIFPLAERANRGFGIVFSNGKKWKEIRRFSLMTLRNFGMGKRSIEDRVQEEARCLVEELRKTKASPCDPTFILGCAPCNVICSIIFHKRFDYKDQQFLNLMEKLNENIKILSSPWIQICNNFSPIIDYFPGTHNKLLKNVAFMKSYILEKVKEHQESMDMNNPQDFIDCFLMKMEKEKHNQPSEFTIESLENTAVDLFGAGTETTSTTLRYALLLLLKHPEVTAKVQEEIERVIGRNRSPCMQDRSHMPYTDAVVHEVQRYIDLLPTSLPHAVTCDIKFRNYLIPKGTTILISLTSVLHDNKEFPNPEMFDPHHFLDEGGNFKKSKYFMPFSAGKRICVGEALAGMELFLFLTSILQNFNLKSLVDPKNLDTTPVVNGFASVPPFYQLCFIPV

## CCN(CC)c1ccc(/C=C/c2cc[n+](CCCCCCCCCC[n+]3ccc(/C=C/c4ccc(N(CC)CC)cc4)c(C)c3)cc2C)cc1 [YAT2150]
[1]
  inhibition at 10 µM: ~50%
[2]
  inhibition at 10 µM: ~50%
[3]
  IC50: 1.7 µM
[4]; human plasma, after 6 h
  % remaining, plasma stability: 91.3%
[4]; human, plasma, after 1 h, read-out: % remaining, plasma stability
  remaining at 1 h, 5 µM: 100%
[4]; human, plasma, after 2 h, read-out: % remaining, plasma stability
  remaining at 2 h, 5 µM: 99.7%
[4]; human, plasma, after 6 h, read-out: % remaining, plasma stability
  remaining at 6 h, 5 µM: 91%
[5]; hepatocytes (cryopreserved, 100 donor pool)
  hepatocyte CLint at 1 µM: 2.5 µL/min/1e6 cells
[5]; human hepatocytes
  t1/2, hepatocyte stability: 4.622 h
[5]; human, hepatocytes (cryopreserved, 100 donor pool), after 2 h
  remaining at 2 h, 1 µM: 70%
[5]; human, hepatocytes (cryopreserved, 100 donor pool), read-out: t1/2, hepatocyte stability
  half-life at 1 µM: 4.62 h
